Measurements from patent US9643967B2, “Pyrrolo[3,2-c]pyridine derivatives as TLR inhibitors” (TAKEDA PHARMACEUTICAL COMPANY LIMITED, priority 2013, dated 2017).
Where two headings read alike, the source gives them in different places.

Molecular target: T1, mTLR7 (Mus musculus, UniProt P58681)
T1 construct: Splenocytes isolated from male C57/BL6 mice; from tissue; host or cells: splenocytes from the spleen of male C57BL/6 mice
T1 sequence (P58681 27-1050): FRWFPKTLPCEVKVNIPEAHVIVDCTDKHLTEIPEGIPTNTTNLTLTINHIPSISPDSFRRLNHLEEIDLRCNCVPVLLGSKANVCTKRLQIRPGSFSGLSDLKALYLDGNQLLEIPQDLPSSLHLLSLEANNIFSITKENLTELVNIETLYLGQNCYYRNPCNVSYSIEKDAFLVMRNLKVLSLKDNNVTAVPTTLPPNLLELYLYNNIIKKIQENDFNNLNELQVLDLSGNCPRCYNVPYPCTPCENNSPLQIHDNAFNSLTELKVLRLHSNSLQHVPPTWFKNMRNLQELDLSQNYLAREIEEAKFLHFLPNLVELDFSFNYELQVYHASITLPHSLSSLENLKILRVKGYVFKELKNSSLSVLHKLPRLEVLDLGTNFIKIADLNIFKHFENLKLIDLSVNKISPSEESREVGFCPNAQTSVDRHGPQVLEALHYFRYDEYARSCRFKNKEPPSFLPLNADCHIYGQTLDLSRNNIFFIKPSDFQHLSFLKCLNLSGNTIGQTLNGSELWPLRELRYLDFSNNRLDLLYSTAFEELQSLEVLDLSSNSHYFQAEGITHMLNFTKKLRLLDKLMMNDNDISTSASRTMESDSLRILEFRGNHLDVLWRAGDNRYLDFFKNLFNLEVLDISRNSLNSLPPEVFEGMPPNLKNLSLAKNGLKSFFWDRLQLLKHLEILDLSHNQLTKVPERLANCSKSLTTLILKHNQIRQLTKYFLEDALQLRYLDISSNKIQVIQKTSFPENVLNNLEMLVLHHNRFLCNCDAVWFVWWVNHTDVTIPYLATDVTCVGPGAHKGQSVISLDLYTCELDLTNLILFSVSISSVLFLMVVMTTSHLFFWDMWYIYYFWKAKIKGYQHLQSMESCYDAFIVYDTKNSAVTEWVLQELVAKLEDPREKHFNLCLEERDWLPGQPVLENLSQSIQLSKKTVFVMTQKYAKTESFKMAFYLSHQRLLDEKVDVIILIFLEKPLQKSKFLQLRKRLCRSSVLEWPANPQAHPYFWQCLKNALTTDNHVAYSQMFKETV
Assay: mTLR7 antagonism (IL-6 and TNF-α release assay) in mouse splenocytes, R0006/DOTAP stimulated
Assay type: cell-based
Conditions: 1 μM, mouse splenocytes
Text: mTLR9 and mTLR7 Antagonism (Cytokine Release Assay) in Mouse Splenocytes
TLR7 ligand R0006 (IDT, 5′-rU*rU*rG*rU*rU*rG*rU*rU*rG*rU*rU*rG*rU*rU*rG*rU*rU*rG*rU*rU-3′ (SEQ ID NO:1)), Liposomal transfection reagent—DOTAP (Roche, Cat. No. 11202375001), TLR9 ligand CpG ODN2006 (Sequence: T*C*G*T*C*G*T*T*T*T*G*T*C*G*T*T*T*T*G*T*C*G*T*T; *=phosphorothioate (SEQ ID NO:2)) DMSO (Sigma, D2650), RPMI Powder (Sigma, R6504), Fetal Bovine Serum (Gibco, 10270), Dulbecco's Phosphate Buffered Saline (Sigma, D1408), 96 well plate (Flat bottom, Costar 3599), ELISA kit for IL-6 (EBioscience, 88-7064-77 and TNFa (EBioscience, 88-7346-88), MACS Buffer (AutoMACS Rinsing Solution (Miltenyl Biotec, 130-091-222)+0.05% BSA), RBC lysis buffer (0.85% NH4Cl), 40 μm cell strainer (BD Falcon, 352340) Method: A. Isolation of Mouse Splenocytes
Mouse spleen was isolated from C57BL6 mouse and stored in 1× chilled PBS buffer until further processed. Spleen was transferred to a sterile petriplate and chopped in to 5-6 pieces in presence of MACS buffer (100 μl) with the help of fresh surgical blade and crushed with flat plunger of a sterile syringe. A uniform suspension was prepared by passing cells through a 40 μm cell strainer. Cells were centrifuged at 450×g for 5 minutes at 4° C., supernatant was discarded and pellet dislodged gently, resuspended in 2 ml of pre-warmed (37° C.) RBC lysis buffer at room temperature with continuous gentle mixing with 1 ml pipette. Lysis buffer was neutralized with 12 ml of chilled MACS buffer and cells were passed through 40 μm cell strainer. Cell suspension was collected in 15 ml MACS buffer and centrifuged at 450×g for 5 minutes at 4° C. Pellet was resuspended in 15 ml MACS buffer and centrifuged at 400×g for 5 minutes. Cells were resuspended in 10 ml of RPMI complete medium and viability was estimated by Trypan blue method.
mTLR7 Antagonism (IL-6 and TNF-α Release Assay):
1 mg/ml stock of R0006 was prepared in sterile, endotoxin-free water. R0006 stock was diluted 10 fold with DOTAP and incubated for 30 minutes to form liposome complex (100 μg/ml of R0006). This complex was further diluted 10 fold with incomplete RPMI media (10 μg/ml of R0006) to achieve the final agonist concentration of 1 μg/ml. DOTAP alone was diluted 10 fold in incomplete RPMI media. NCEs were added in a concentration range of 30 μM to 1 nM in respective wells of assay plate, assay medium containing 0.3% DMSO were added to control wells. 0.2 million splenocytes were added to all the wells and incubated at 37° C. in 5% CO2 incubator for 30 minutes. 1 μg/ml of respective agonist was added to all the wells except those were assigned as negative controls and mixed thoroughly. DOTAP was added to negative control wells and incubated overnight at 37° C./5% CO2. The plate was centrifuged at 450×g for 5 minutes at room temperature and the supernatant was collected. ELISA was performed as per manufacturer's protocol. S/B Ratio, % Activity and % Inhibition was calculated using MS Excel. IC50 and inhibition curve was generated using Graph Pad Prism.

[1] = IL-6 release, read-out: mTLR7 inhibitory activity (% at 1 μM), IL-6
[2] = TNF-α release, read-out: mTLR7 inhibitory activity (% at 1 μM), TNF-α

SMILES	inhibition at 1 µM [1] [%]	inhibition at 1 µM [2] [%]
Cc1cc2[nH]c(CN3CCOCC3)cc2c(-c2ccc(N3CCN(C(C)C)CC3)cc2)n1 [Example A4, 4-[[4-[4-[4-isopropylpiperazin-1-yl)phenyl]-6-methyl-1H-pyrrolo[3,2-c]pyridin-2-yl]methyl] morpholine]	100	100
CCN1CCN(c2ccc(-c3nc(C)cc4[nH]c(CN5CCOCC5)cc34)cc2)CC1 [Example A5, 4-[[4-[4-(4-ethylpiperazin-1-yl)phenyl]-6-methyl-1H-pyrrolo[3,2-c]pyridin-2-yl]methyl] morpholine]	100	100
CC(C)N1CCN(c2ccc(-c3nccc4c3cc(CN3CCOCC3)n4C)cc2)CC1 [Example A8, 4-[[4-[4-(4-isopropylpiperazin-1-yl)phenyl]-1-methyl-pyrrolo[3,2-c]pyridin-2-yl]methyl] morpholine]	100	100
CC(C)N1CCN(c2ccc(-c3nccc4[nH]c(CN5CCC6(CC5)CC(O)C6)cc34)cc2)CC1 [Example A13, 7-[[4-[4-(4-isopropylpiperazin-1-yl)phenyl]-1H-pyrrolo[3,2-c]pyridin-2-yl]methyl]-7-azaspiro[3.5] nonan-2-ol]	98	91
Cc1cc2[nH]c(Cn3cccn3)cc2c(-c2ccc(N3CCN(C(C)C)CC3)cc2)n1 [Example A28, 4-[4-(4-isopropylpiperazin-1-yl)phenyl]-6-methyl-2-(pyrazol-1-ylmethyl)-1H-pyrrolo[3,2-c]pyridine]	88	100
Cc1cc2[nH]c(CN3CCC4(CC3)CC(O)C4)cc2c(-c2ccc(N3CCN(C(C)C)CC3)cc2)n1 [Example A29, 7-[[4-[4-(4-isopropylpiperazin-1-yl)phenyl]-6-methyl-1H-pyrrolo[3,2-c]pyridin-2-yl]methyl]-7-azaspiro[3.5] nonan-2-ol]	97	82
Cc1cc2[nH]c(CN3CCC4(CC3)CC(C)C4)cc2c(-c2ccc(N3CCN(C(C)C)CC3)cc2)n1 [Example A30, 4-[4-(4-isopropylpiperazin-1-yl)phenyl]-6-methyl-2-[(2-methyl-7-azaspiro[3.5]nonan-7-yl)methyl]-1H-pyrrolo[3,2-c]pyridine]	100	100
CC(C)N1CCN(c2ccc(-c3nc(C4CC4)cc4[nH]c(CN5CCOCC5)cc34)cc2)CC1 [Example A33, 4-[[6-cyclopropyl-4-[4-(4-isopropylpiperazin-1-yl)phenyl]-1H-pyrrolo[3,2-c]pyridin-2-yl]methyl] morpholine]	–	83
Cc1cc2c(cc(CN3CCOCC3)n2C)c(-c2ccc(N3CCN(C(C)C)CC3)cc2)n1 [Example A35, 4-[[4-[4-(4-isopropylpiperazin-1-yl]phenyl]-1,6-dimethyl-pyrrolo[3,2-c]pyridin-2-yl]methyl] morpholine]	100	100

The next lines start with the values.

inhibition at 1 µM [1] [%]	inhibition at 1 µM [2] [%]	SMILES
97	100	CC(C)N1CCN(c2ccc(-c3nccc4[nH]c(CN5CCOCC5)cc34)cc2)CC1 [Example A1, 4-[[4-[4-(4-isopropylpiperazin-1-yl)phenyl]-1H-pyrrolo[3,2-c]pyridin-2-yl]methyl]morpholine]
90	100	CN1CCN(c2ccc(-c3nccc4[nH]c(CN5CCOCC5)cc34)cc2)CC1 [Example A2, 4-[[4-[4-(4-methylpiperazin-1-yl)phenyl]-1H-pyrrolo[3,2-c]pyridin-2-yl]methyl] morpholine]
100	100	CCN1CCN(c2ccc(-c3nccc4[nH]c(CN5CCOCC5)cc34)cc2)CC1 [Example A3, 4-[[4-[4-(4-ethylpiperazin-1-yl)phenyl]-1H-pyrrolo[3,2-c]pyridin-2-yl]methyl] morpholine]
–	100	CN1CCN(c2ccc(-c3nccc4c3cc(CN3CCOCC3)n4C)cc2)CC1 [Example A9, 4-[[1-methyl-4-[4-(4-methylpiperazin-1-yl)phenyl]pyrrolo[3,2-c]pyridin-2-yl]methyl] morpholine]
80	45	CC(C)N1CCN(c2ccc(-c3nccc4[nH]c(CN5CCC(O)CC5)cc34)cc2)CC1 [Example A12, 1-[[4-[4-(4-isopropylpiperazin-1-yl)phenyl]-1H-pyrrolo[3,2-c]pyridin-2-yl]methyl] piperidin-4-ol]
100	99	CC(C)N1CCN(c2ccc(-c3nccc4[nH]c(CN5CC(F)C5)cc34)cc2)CC1 [Example A16, 2-[(3-fluoroazetidin-1-yl)methyl]-4-[4-(4-isopropylpiperazin-1-yl)phenyl]-1H-pyrrolo[3,2-c]pyridine]
100	100	CC(C)N1CCN(c2ccc(-c3nccc4[nH]c(CN5CCCCC5)cc34)cc2)CC1 [Example A17, 4-[4-(4-isopropylpiperazin-1-yl)phenyl]-2-(1-piperidylmethyl)-1H-pyrrolo[3,2-c]pyridine]
–	100	CC(C)N1CCN(c2ccc(-c3nccc4[nH]c(CN5CCC(F)CC5)cc34)cc2)CC1 [Example A24, 2-[(4-fluoro-1-piperidyl)methyl]-4-[4-(4-isopropylpiperazin-yl)phenyl]-1H-pyrrolo[3,2-c] pyridine]
100	100	CN1CCN(c2ccc(-c3nccc4[nH]c(CN5CCC(F)CC5)cc34)cc2)CC1 [Example A25, 2-[(4-fluoro-1-piperidyl)methyl]-4-[4-(4-methylpiperazin-1-yl)phenyl] - 1H-pyrrolo[3,2-c]pyridine]
–	100	CN1CCN(c2ccc(-c3nc(C4CC4)cc4[nH]c(CN5CCOCC5)cc34)cc2)CC1 [Example A34, 4-[[6-cyclopropyl-4-[4-(4-methylpiperazin-1-yl)phenyl]-1H-pyrrolo[3,2-c]pyridin-2-yl]methyl] morpholine]
